Reference: US12678440B2, “Compositions and methods for treating misfolded protein ocular disorders” (CASE WESTERN RESERVE UNIVERSITY, priority 2020, dated 2026)

Columns and labels:
[1] = test system: P23H rhodopsin; test: Rhodopsin dot blot of NIH3T3 stable cells; format: cell-based; details: 10 μM, 24 h, vs DMSO
Method: NIH3T3 (RHO^P23H/GFP) or NIH3T3 (RHO^WT/GFP) cells were seeded at 2.5×10^4 cells/well in 100 μL/well complete medium in a 96-well plate and cultured at 37° C. with 5% CO2 for 4 h. Cells then were treated with 100 μL/well complete medium containing 2×the final concentration of tested compounds. After 24 h of further incubation at 37° C. with 5% CO2, the medium was aspirated, and the cells were washed once with PBS. The cell lysis buffer containing radioimmunoprecipitation assay (RIPA) buffer and complete protease inhibitor cocktail (Roche Diagnostics, Basel, Switzerland) were added to the cells at 200 μL/well followed by sonication for 6 s. Because the cellular protein level of RHO^WT was higher than RHO^P23H, 5% of one well NIH3T3 (RHO^WT/GFP) cells samples and 90% of one well NIH3T3 (RHO^P23H/GFP) cells samples were loaded to a nitrocellulose membrane and air-dried. Opsin protein was immunostained with 0.1 μg/mL HRP-conjugated 1D4 anti-rhodopsin antibody. Densitometry of the bands was measured by the ImageJ software and normalized to DMSO-treating control.

[2] = test system: adRP-causing rhodopsin mutants (T4R, P23H, P53R, C110Y, D190N, P267L); test: High-content imaging of rhodopsin mutants stably expressed in U2OS cells; format: cell-based, mouse; details: for immunofluorescence intensities of rhodopsin mutants: six adRP mutants
Method: Seven U2OS stable cell lines were generated which separately express the WT and six mutant mouse rhodopsin (T4R, P23H, P53R, C110Y, D190N, P267L) fused with Venus fluorescence protein. Briefly, the U2OS cells (ATCC, Manassas, VA, USA) were transfected with the pcDNA3.1 Zeo containing the cDNA of mouse WT or T4R, P23H, P53R, C110Y, D190N, P267L rhodopsin fused with Venus and transfected cells were incubated in DMEM with 10% FBS for 48 h before addition of 400 μg/mL of Zeocin for positive clone selection. Colonies of cells survived from 1 week of Zeocin selection were collected, and expression of WT and six mutant rhodopsins were confirmed by fluorescence of Venus and immunoblotting of rhodopsin.
To assess the effect of active compounds on the clearance of P23H rhodopsin in mammalian cells, an image-based assay was performed using NIH3T3 (RHO^WT/GFP) and NIH3T3 (RHO^P23H/GFP) cells, as described previously. Briefly, cells were seeded at 5000 cells per well in 384-well plates and incubated at 37° C. in 5% CO2 for 4 hours until cells were attached to the bottom of the plate. Attached cells were treated with compounds for 24 hours. The assay medium was aspirated, and cells were fixed with 4% paraformaldehyde at 20 μL per well for 20 min at room temperature. Cell membranes were permeabilized with PBS containing 0.1% Triton X-100 (PBST) and then incubated with 50 µg/mL 1D4 anti-rhodopsin antibody at 15 μL/well for 1 hour at room temperature. After three washes with 50 μl/well of PBST, cells were incubated with 15 μL/well Cy3-conjugated goat anti-mouse IgG antibody for 1 hour at room temperature. After three washes with 50 μl/well of PBST, cells were incubated in 50 μl/well of PBS containing 2 μg/mL Hoechst 33342 to stain the nuclei. Finally, the immunostained cells were imaged by an ImageExpress High Content Imaging System (MolecularDevices). Immunofluorescence of rhodopsin was measured by MetaXpress software using the mean of total fluorescence of Cy3 channel per cell per well taken from five fields containing 600-1000 intact cells per well. After normalizing the fluorescence intensities of rhodopsin to the DMSO treated cells as 0% and cells immunostained with secondary antibody only as −100%, dose-response curves for each compound were plotted and fitted by a modified Hill function using the Origin software. The high-content imaging experiments for hit validation were performed at the CWRU drug discovery facility, and the high-content imaging analyses for the MTX co-treatment with BafA1 and MG-132 were undertaken at the University of Pittsburgh Drug Discovery Institute.

[3] = test system: WT rhodopsin; test: Immunoblot of rhodopsin, MTX plus BafA1 or MG-132, NIH3T3 (RHO^WT/GFP) cells; format: cell-based
Method: Cells were seeded in 6-well plates at a density of 5×10^5 cells/well and cultured at 37° C. with 5% CO2 for 17 h. The medium was replaced with a fresh medium containing a corresponding concentration of compounds. After treatment for 24 h, cells collected and lysed in 150 μL PBS containing 0.1% SDS and complete protease inhibitor cocktail with 12 s of sonication on ice. Retina samples were lysed in 300 μL per retina of PBS containing 0.1% SDS and complete protease inhibitor cocktail under 24 s of sonication on ice. Protein concentrations were determined by measurements of OD280 nm using a Nanodrop spectrometer. To immunoblot rhodopsin, one hundred μg of total protein for NIH3T3 (RHO^P23H/GFP) cells, or twenty μg of total protein for NIH3T3 (RHO^WT/GFP) cells was loaded per well onto an SDS-PAGE gel. To detect other proteins, fifty μg of total protein was loaded per well. After separation by electrophoresis in 10% and 16% SDS-PAGE gels, proteins were transferred to a nitrocellulose membrane using a wet membrane electrotransfer cassette followed by blocking with 5% bovine serum albumin in PBS containing 0.05% Tween 20 for 1 h. The membranes were incubated with primary antibodies at 4° C. overnight following with appropriate secondary antibodies for 1 h at room temperature. […]

| SMILES | Rho protein level (Dot blot) [1] | immunofluorescence intensities of rhodopsin mutants [2] | rhodopsin immunofluorescence in cells expressing the P23H, C110Y, D190N and P267L mutants ([2]; seven doses) | WT rhodopsin level under BafA1 and MTX co-treatment (immunoblot) ([3]; 10 μM MTX + 100 nM BafA1, 24 h) | WT rhodopsin accumulation under MG-132 plus MTX (immunoblot) ([3]; 10 μM MTX + 5 μM MG-132, 24 h) |
| --- | --- | --- | --- | --- | --- |
| CC(=O)OC(CC(=O)[O-])C[N+](C)(C)C (stereo not shown) [CL-001] | Down | reduced |  |  |  |
| CC(=O)OC(CC(=O)O)C[N+](C)(C)C (stereo not shown) [CL-002] | Down | reduced |  |  |  |
| O=C(O)C1=CC=CC(O)C1O (stereo not shown) [CL-003] | Down |  |  |  |  |
| CC(O)CN (stereo not shown) [CL-004] | Down |  |  |  |  |
| NCC(=O)COP(=O)(O)O [CL-005] | Down | reduced |  |  |  |
| O=C(NC1CCNCC1)c1n[nH]cc1NC(=O)c1c(Cl)cccc1Cl [CL-006] | Down |  |  |  |  |
| CCn1cnc2c(N)ncnc21 [CL-007] | Down | reduced |  |  |  |
| CCC(C)(O)C(O)C(=O)O (stereo not shown) [CL-008] | Down |  |  |  |  |
| CN(Cc1cnc2nc(N)nc(N)c2n1)c1ccc(C(=O)N[C@@H](CCC(=O)O)C(=O)O)cc1 [CL-009, N-[4-[[(2,4-diamino-6-pteridinyl)methyl]methylamino]benzoyl]-L-glutamic acid] | Down |  | dose-dependent reductions | accumulation of WT rhodopsin | did not |
